Source: patent US5407932A, “Quinolone derivatives and antibacterial agents containing the same” (Wakunaga Seiyaku Kabushiki Kaisha, priority 1989, dated 1995)
≈ marks a conversion by molar mass, not a printed value.

What was measured:
Test in all cases: Minimum inhibitory concentration, standard method of the Japan Society of Chemotherapy
Assay type in all cases: cell-based
P. aeruginosa (IFO 3445) = conditions: Pseudomonas aeruginosa, IFO3445
Experimental: (§1) With respect to certain representative compounds among the compounds [I] of the present invention, their minimum inhibitory concentrations (MIC; μg/ml) were measured in accordance with the standard method established by the Japan Society of Chemotherapy [CHEMOTHERAPY, 29(1), 76-79 (1981)]. The results are summarized in Table 1, in which the compound numbers are as shown in examples.

[1] = system: E. coli NIH JC-2 (IFO 12734); conditions: Escherichia coli, IFO12734
Experimental: as §1

[2] = system: S. aureus 209 P (IFO 12732); conditions: Staphylococcus aureus, IFO12732
Experimental: as §1

SMILES	MIC (P. aeruginosa (IFO 3445)) [µg/mL]	MIC [1] [µg/mL]	MIC [2] [µg/mL]
CO[C@@H]1CN(c2c(F)cc3c(=O)c(C(=O)O)cn(C4COC4)c3c2F)C[C@H]1N (relative stereo) [Compound 85]	6.25 (≈ 15.8 µM)	1.56 (≈ 3.95 µM)	3.13 (≈ 7.92 µM)
CO[C@@H]1CN(c2c(F)c(N)c3c(=O)c(C(=O)O)cn(C4COC4)c3c2F)C[C@H]1N (relative stereo) [Compound 86]	3.13 (≈ 7.63 µM)	0.39 (≈ 0.95 µM)	1.56 (≈ 3.8 µM)
CO[C@@H]1CN(c2nc3c(cc2F)c(=O)c(C(=O)O)cn3C2COC2)C[C@H]1N (relative stereo) [Compound 88]	3.13 (≈ 8.27 µM)	0.78 (≈ 2.06 µM)	6.25 (≈ 16.5 µM)
CO[C@H]1CN(c2c(F)cc3c(=O)c(C(=O)O)cn(C4COC4)c3c2F)C[C@H]1N (relative stereo) [Compound 89]	3.13 (≈ 7.92 µM)	0.78 (≈ 1.97 µM)	1.56 (≈ 3.95 µM)
CN[C@@H]1CN(c2c(F)cc3c(=O)c(C(=O)O)cn(C4COC4)c3c2F)C[C@H]1C (relative stereo) [Compound 91]	1.56 (≈ 3.97 µM)	0.2 (≈ 0.508 µM)	0.78 (≈ 1.98 µM)
CN[C@@H]1CN(c2c(F)c(N)c3c(=O)c(C(=O)O)cn(C4COC4)c3c2F)C[C@H]1C (relative stereo) [Compound 92]	1.56 (≈ 3.82 µM)	0.1 (≈ 0.245 µM)	0.39 (≈ 0.955 µM)
CN[C@@H]1CN(c2c(F)cc3c(=O)c(C(=O)O)cn(C4COC4)c3c2F)C[C@@H]1C (relative stereo) [Compound 93]	3.13 (≈ 7.96 µM)	0.78 (≈ 1.98 µM)	1.56 (≈ 3.97 µM)
CN[C@@H]1CN(c2c(F)c(N)c3c(=O)c(C(=O)O)cn(C4COC4)c3c2F)C[C@@H]1C (relative stereo) [Compound 94]	1.56 (≈ 3.82 µM)	0.2 (≈ 0.49 µM)	0.78 (≈ 1.91 µM)
C[C@@H]1CN(c2c(F)cc3c(=O)c(C(=O)O)cn(C4COC4)c3c2F)C[C@H]1N.O=C(O)C(F)(F)F (relative stereo) [Compound 97, 7-(Trans-3-amino-4-methylpyrrolidin-1-yl)-6,8-difluoro-1-(oxetan-3-yl)-1,4-dihydro-4-oxoquinoline-3-carboxylic acid trifluoroacetic acid salt]	1.56	0.39	0.78
C[C@@H]1CN(c2c(F)c(N)c3c(=O)c(C(=O)O)cn(C4COC4)c3c2F)C[C@H]1N (relative stereo) [Compound 101]	0.78 (≈ 1.98 µM)	0.1 (≈ 0.254 µM)	0.2 (≈ 0.507 µM)
C[C@H]1CN(c2c(F)cc3c(=O)c(C(=O)O)cn(C4COC4)c3c2F)C[C@H]1N (relative stereo) [Compound 102]	0.78 (≈ 2.06 µM)	0.1 (≈ 0.264 µM)	0.39 (≈ 1.03 µM)
C[C@H]1CN(c2c(F)c(N)c3c(=O)c(C(=O)O)cn(C4COC4)c3c2F)C[C@H]1N (relative stereo) [Compound 103]	0.39 (≈ 0.989 µM)	0.1 (≈ 0.254 µM)	0.2 (≈ 0.507 µM)
O=C(O)c1cn(C2COC2)c2c(F)c(N3CCCC3)c(F)cc2c1=O [Compound 4, 6,8-Difluoro-1-(oxetan-3-yl)-7-(pyrrolidin-1-yl)-1,4-dihydro-4-oxoquinoline-3-carboxylic acid]	1.56 (≈ 4.45 µM)	0.39 (≈ 1.11 µM)	0.2 (≈ 0.571 µM)
O=C(O)c1cn(C2COC2)c2c(F)c(N3CC=CC3)c(F)cc2c1=O [Compound 5]	6.25 (≈ 17.9 µM)	0.39 (≈ 1.12 µM)	0.39 (≈ 1.12 µM)
O=C(O)c1cn(C2COC2)c2c(F)c(N3CCOCC3)c(F)cc2c1=O [Compound 6]	6.25 (≈ 17.1 µM)	0.78 (≈ 2.13 µM)	0.78 (≈ 2.13 µM)
O=C(O)c1cn(C2COC2)c2c(F)c(N3CCSCC3)c(F)cc2c1=O [Compound 7]	3.13 (≈ 8.19 µM)	0.78 (≈ 2.04 µM)	0.39 (≈ 1.02 µM)
O=C(O)c1cn(C2COC2)c2c(F)c(N3Cc4ccccc4C3)c(F)cc2c1=O [Compound 9]	3.13 (≈ 7.86 µM)	0.39 (≈ 0.979 µM)	0.2 (≈ 0.502 µM)
CN1CCN(c2c(F)cc3c(=O)c(C(=O)O)cn(C4COC4)c3c2F)CC1 [Compound 11]	1.56 (≈ 4.11 µM)	0.2 (≈ 0.527 µM)	1.56 (≈ 4.11 µM)
O=C(O)c1cn(C2COC2)c2c(F)c(N3CCNCC3)c(F)cc2c1=O [Compound 12]	1.56 (≈ 4.27 µM)	0.2 (≈ 0.547 µM)	1.56 (≈ 4.27 µM)
CC1CN(c2c(F)cc3c(=O)c(C(=O)O)cn(C4COC4)c3c2F)CCN1 (stereo not drawn) [Compound 13]	1.56 (≈ 4.11 µM)	0.2 (≈ 0.527 µM)	1.56 (≈ 4.11 µM)
CC1CN(c2c(F)cc3c(=O)c(C(=O)O)cn(C4COC4)c3c2F)CC(C)N1 (stereo not drawn) [Compound 14]	3.13 (≈ 7.96 µM)	0.2 (≈ 0.508 µM)	3.13 (≈ 7.96 µM)
O=C(O)c1cn(C2COC2)c2c(F)c(N3CCC(O)CC3)c(F)cc2c1=O [Compound 15]	6.25 (≈ 16.4 µM)	0.78 (≈ 2.05 µM)	0.39 (≈ 1.03 µM)
O=C(O)c1cn(C2COC2)c2c(F)c(N3CCC(O)C3)c(F)cc2c1=O (stereo not drawn) [Compound 16]	1.56 (≈ 4.26 µM)	0.39 (≈ 1.06 µM)	0.78 (≈ 2.13 µM)
O=C(O)c1cn(C2COC2)c2c(F)c(N3CC(O)C3)c(F)cc2c1=O [Compound 17]	6.25 (≈ 17.7 µM)	0.78 (≈ 2.21 µM)	3.13 (≈ 8.88 µM)
NC1CCN(c2c(F)cc3c(=O)c(C(=O)O)cn(C4COC4)c3c2F)C1 (stereo not drawn) [Compound 18]	1.56 (≈ 4.27 µM)	0.39 (≈ 1.07 µM)	1.56 (≈ 4.27 µM)

SMILES	MIC (P. aeruginosa (IFO 3445)) [µg/mL]	MIC [1] [µg/mL]	MIC [2] [µg/mL]
CN(C)C1CCN(c2c(F)cc3c(=O)c(C(=O)O)cn(C4COC4)c3c2F)C1 (stereo not drawn) [Compound 19]	3.13 (≈ 7.96 µM)	0.2 (≈ 0.508 µM)	1.56 (≈ 3.97 µM)
NCC1CCN(c2c(F)cc3c(=O)c(C(=O)O)cn(C4COC4)c3c2F)C1 (stereo not drawn) [Compound 20]	3.13 (≈ 8.25 µM)	1.56 (≈ 4.11 µM)	0.2 (≈ 0.527 µM)
NCC1CN(c2c(F)cc3c(=O)c(C(=O)O)cn(C4COC4)c3c2F)CCO1 (stereo not drawn) [Compound 22]	> 25	6.25 (≈ 15.8 µM)	0.78 (≈ 1.97 µM)
Nc1c(F)c(N2CCCC2)c(F)c2c1c(=O)c(C(=O)O)cn2C1COC1 [Compound 27, 5-Amino-6,8-difluoro-1-(oxetan-3-yl)-7-(pyrrolidin-1-yl)-1,4-dihydro-4-oxoquinoline-3-carboxylic acid]	3.13 (≈ 8.57 µM)	0.39 (≈ 1.07 µM)	0.2 (≈ 0.547 µM)
Nc1c(F)c(N2CCSCC2)c(F)c2c1c(=O)c(C(=O)O)cn2C1COC1 [Compound 28]	6.25 (≈ 15.7 µM)	0.78 (≈ 1.96 µM)	0.78 (≈ 1.96 µM)
Nc1c(F)c(N2Cc3ccccc3C2)c(F)c2c1c(=O)c(C(=O)O)cn2C1COC1 [Compound 30]	3.13 (≈ 7.57 µM)	0.78 (≈ 1.89 µM)	0.2 (≈ 0.484 µM)
Nc1c(F)c(N2CCC(N)C2)c(F)c2c1c(=O)c(C(=O)O)cn2C1COC1 (stereo not drawn) [Compound 31]	0.78 (≈ 2.05 µM)	0.2 (≈ 0.526 µM)	0.39 (≈ 1.03 µM)
NCC1CCN(c2c(F)c(N)c3c(=O)c(C(=O)O)cn(C4COC4)c3c2F)C1 (stereo not drawn) [Compound 32]	3.13 (≈ 7.94 µM)	0.78 (≈ 1.98 µM)	0.1 (≈ 0.254 µM)
CN1CCN(c2cc3c(cc2F)c(=O)c(C(=O)O)cn3C2COC2)CC1 [Compound 35, 6-Fluoro-7-(4-methylpiperazin-1-yl)-1-(oxetan-3-yl)-1,4-dihydro-4-oxoquinoline-3-carboxylic acid]	3.13 (≈ 8.66 µM)	0.2 (≈ 0.553 µM)	1.56 (≈ 4.32 µM)
O=C(O)c1cn(C2COC2)c2cc(N3CCNCC3)c(F)cc2c1=O [Compound 36]	3.13 (≈ 9.01 µM)	0.39 (≈ 1.12 µM)	3.13 (≈ 9.01 µM)
NC1CCN(c2cc3c(cc2F)c(=O)c(C(=O)O)cn3C2COC2)C1 (stereo not drawn) [Compound 37]	1.56 (≈ 4.49 µM)	0.39 (≈ 1.12 µM)	1.56 (≈ 4.49 µM)
NCC1CCN(c2cc3c(cc2F)c(=O)c(C(=O)O)cn3C2COC2)C1 (stereo not drawn) [Compound 38]	12.5 (≈ 34.6 µM)	3.13 (≈ 8.66 µM)	0.39 (≈ 1.08 µM)
CN(C)C1CCN(c2cc3c(cc2F)c(=O)c(C(=O)O)cn3C2COC2)C1 (stereo not drawn) [Compound 39]	6.25 (≈ 16.6 µM)	0.39 (≈ 1.04 µM)	1.56 (≈ 4.16 µM)
CN(C)CC1CCN(c2cc3c(cc2F)c(=O)c(C(=O)O)cn3C2COC2)C1 (stereo not drawn) [Compound 40]	6.25 (≈ 16 µM)	0.39 (≈ 1 µM)	0.78 (≈ 2 µM)
NC1CN(c2cc3c(cc2F)c(=O)c(C(=O)O)cn3C2COC2)C1 [Compound 41]	6.25 (≈ 18.8 µM)	0.78 (≈ 2.34 µM)	12.5 (≈ 37.5 µM)
O=C(O)c1cn(C2COC2)c2cc(N3CCC(O)C3)c(F)cc2c1=O (stereo not drawn) [Compound 42]	3.13 (≈ 8.99 µM)	0.78 (≈ 2.24 µM)	1.56 (≈ 4.48 µM)
CNC1CCN(c2c(F)cc3c(=O)c(C(=O)O)cn(C4COC4)c3c2F)C1 (stereo not drawn) [Compound 44, 6,8-Difluoro-7-(3-methylaminopyrrolidin-1-yl)-1-(oxetan-3-yl)-1,4-dihydro-4-oxoquinoline-3-carboxylic acid]	1.56 (≈ 4.11 µM)	0.39 (≈ 1.03 µM)	1.56 (≈ 4.11 µM)
CCNC1CCN(c2c(F)cc3c(=O)c(C(=O)O)cn(C4COC4)c3c2F)C1 (stereo not drawn) [Compound 45]	3.13 (≈ 7.96 µM)	0.39 (≈ 0.991 µM)	1.56 (≈ 3.97 µM)
CNCC1CCN(c2c(F)cc3c(=O)c(C(=O)O)cn(C4COC4)c3c2F)C1 (stereo not drawn) [Compound 46]	3.13 (≈ 7.96 µM)	0.78 (≈ 1.98 µM)	0.1 (≈ 0.254 µM)
CCNCC1CCN(c2c(F)cc3c(=O)c(C(=O)O)cn(C4COC4)c3c2F)C1 (stereo not drawn) [Compound 47]	6.25 (≈ 15.3 µM)	0.78 (≈ 1.91 µM)	0.2 (≈ 0.491 µM)
NC1CN(c2c(F)cc3c(=O)c(C(=O)O)cn(C4COC4)c3c2F)C1 [Compound 48]	3.13 (≈ 8.91 µM)	0.39 (≈ 1.11 µM)	1.56 (≈ 4.44 µM)
Nc1c(F)c(N2CC(N)C2)c(F)c2c1c(=O)c(C(=O)O)cn2C1COC1 [Compound 49]	3.13 (≈ 8.54 µM)	0.78 (≈ 2.13 µM)	1.56 (≈ 4.26 µM)
CNC1CCN(c2c(F)c(N)c3c(=O)c(C(=O)O)cn(C4COC4)c3c2F)C1 (stereo not drawn) [Compound 50]	1.56 (≈ 3.96 µM)	0.39 (≈ 0.989 µM)	0.78 (≈ 1.98 µM)
CCNC1CCN(c2c(F)c(N)c3c(=O)c(C(=O)O)cn(C4COC4)c3c2F)C1 (stereo not drawn) [Compound 51]	3.13 (≈ 7.66 µM)	0.78 (≈ 1.91 µM)	1.56 (≈ 3.82 µM)
CNCC1CCN(c2c(F)c(N)c3c(=O)c(C(=O)O)cn(C4COC4)c3c2F)C1 (stereo not drawn) [Compound 52]	3.13 (≈ 7.66 µM)	0.78 (≈ 1.91 µM)	0.1 (≈ 0.245 µM)
